According to patent US10870629B2, “18F-labelled compound for prostate cancer diagnosis, and use thereof” (FUTURECHEM CO., LTD., priority 2017, dated 2020):

Key:
PC-3 PIP = assay: Measurement of cellular internalization; type: cell-based, human
Description: Then, the membrane protein and the cytoplasmic protein were separated by using Mem-PER Plus Membrane Protein Extraction Kit and NE-PER Nuclear and Cytoplasmic Extraction Kit (ThermoFisher Scientific). The internalization rate (%) was confirmed by obtaining the radioactivity ratio in the cytoplasmic protein to the total radioactivity.

PSMA+ PC-3 PIP tumors = assay: MicroPET/CT in mice transplanted with prostate cancer cell lines; type: in vivo, nude mouse; details: for tumor binding (MicroPET/CT, FIG. 3): nude mouse with PC-3 PIP and PC-3 flu tumors; for excretion (MicroPET/CT, FIG. 3): nude mouse, intravenous, 60 minutes imaging
PSMA protein = target: T1, PSMA protein (Homo sapiens, UniProt Q04609); assay: Measurement of binding capacity: competition with [125I]15 on 22RV1 cells; details: for IC50: [125I]15 0.1 nM, 37° C., 2 hours, read-out: IC50 (Mean ± SD)
T1 construct: host or cells: 22RV1 human prostate cancer cells
T1 sequence (Q04609 whole entry): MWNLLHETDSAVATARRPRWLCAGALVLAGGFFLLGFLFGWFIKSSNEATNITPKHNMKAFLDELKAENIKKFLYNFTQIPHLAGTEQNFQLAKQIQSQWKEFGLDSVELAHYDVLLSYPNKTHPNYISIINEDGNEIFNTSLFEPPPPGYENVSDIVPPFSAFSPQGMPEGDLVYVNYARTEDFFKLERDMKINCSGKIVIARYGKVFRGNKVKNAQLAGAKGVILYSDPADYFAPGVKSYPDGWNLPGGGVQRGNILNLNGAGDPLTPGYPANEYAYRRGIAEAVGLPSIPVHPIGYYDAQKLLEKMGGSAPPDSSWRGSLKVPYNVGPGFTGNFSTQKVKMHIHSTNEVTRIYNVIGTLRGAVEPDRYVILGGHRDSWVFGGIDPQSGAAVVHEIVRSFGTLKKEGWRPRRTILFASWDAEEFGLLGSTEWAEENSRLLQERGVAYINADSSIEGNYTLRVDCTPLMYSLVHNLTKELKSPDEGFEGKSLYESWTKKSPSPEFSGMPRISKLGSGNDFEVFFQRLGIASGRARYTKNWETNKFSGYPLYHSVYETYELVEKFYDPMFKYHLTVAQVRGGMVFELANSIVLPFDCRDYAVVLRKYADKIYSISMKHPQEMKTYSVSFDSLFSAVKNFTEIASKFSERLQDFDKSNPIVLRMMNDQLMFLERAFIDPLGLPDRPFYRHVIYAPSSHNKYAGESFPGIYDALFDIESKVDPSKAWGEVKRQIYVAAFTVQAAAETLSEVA
Protocol: RPMI1640 supplemented with 1% BSA (bovine serum albumin) was used as a buffer solution.
[^125I]15 (0.1 nM) was added to a vessel containing 22RV1 cells (5×10^4), to which [^18F]1-1 to [^18F]1-9 compounds were loaded at 9 concentrations ([…]), followed by stirring at 37° C. for 2 hours. Upon completion of the stirring, the vessel was washed with 2 mL of PBS solution three times, and then the remaining radioactivity and 50% inhibition concentration (nonlinear regression method) were measured using a gamma counter (2480 WIZARD2 Gamma Counter PerkinElmer Co., MA) and GraphPad Prism (GraphPad Software, Inc., CA).

PSMA+ PC-3 PIP tumor = assay: Biodistribution test with prostate cancer model mouse
[1] = 0.5 h after tail vein injection

O=C(O)CC[C@H](NC(=O)N[C@@H](CCCCNC(=O)Nc1ccc([123I])cc1)C(=O)O)C(=O)O [Comparative Example 1, reference compound]
% Internalization ratio (Mean ± SD) (PC-3 PIP; 30 min): 91.27 ± 4.03% | % Internalization ratio (Mean ± SD) (PC-3 PIP; 60 min): 86.91 ± 8.13% | % Internalization ratio (Mean ± SD) (PC-3 PIP; 120 min): 94.31 ± 2.94% | % Internalization ratio (Mean ± SD) (PC-3 PIP; 240 min): 95.01 ± 2.58% | tumor binding (MicroPET/CT, FIG. 3) (PSMA+ PC-3 PIP tumors): selectively bound to PSMA+PC-3 PIP tumors | excretion (MicroPET/CT, FIG. 3) (PSMA+ PC-3 PIP tumors): rapidly excreted through the kidneys and bladder

O=C(O)CC[C@H](NC(=O)N[C@@H](CCCCNC(=O)Nc1ccc(I)cc1)C(=O)O)C(=O)O [Comparative Example 1, reference compound]
IC50 (PSMA protein): 30.7 ± 10.2 nM

O=C(O)CC[C@H](NC(=O)N[C@@H](CCCCNC(=O)N(Cc1ccncc1)Cc1cn(CCOCC[18F])nn1)C(=O)O)C(=O)O [Example 7-5]
IC50 (PSMA protein): 11.8 nM

O=C(O)CC[C@H](NC(=O)N[C@@H](CCCCNC(=O)NCc1cn(CCF)nn1)C(=O)O)C(=O)O [Example 7-1]
IC50 (PSMA protein): 635 ± 263 nM

O=C(O)CC[C@H](NC(=O)N[C@@H](CCCCNC(=O)N(Cc1cn(CCOCC[18F])nn1)c1ccncc1)C(=O)O)C(=O)O [Example 7-6]
PIP to blood (PSMA+ PC-3 PIP tumor; [1]): 14.05 ± 3.61 | PIP to liver (PSMA+ PC-3 PIP tumor; [1]): 5.64 ± 6.10 | PIP to muscle (PSMA+ PC-3 PIP tumor; [1]): 13.00 ± 4.97 | PIP to spleen (PSMA+ PC-3 PIP tumor; [1]): 7.31 ± 3.34 | PIP/flu (PSMA+ PC-3 PIP tumor; [1]): 16.00 ± 5.68 | PIP to blood (PSMA+ PC-3 PIP tumor; 1 h after tail vein injection): 30.30 ± 17.05 | PIP to liver (PSMA+ PC-3 PIP tumor; 1 h after tail vein injection): 9.93 ± 13.26 | PIP to muscle (PSMA+ PC-3 PIP tumor; 1 h after tail vein injection): 20.11 ± 14.99 | PIP to spleen (PSMA+ PC-3 PIP tumor; 1 h after tail vein injection): 12.46 ± 16.18 | PIP/flu (PSMA+ PC-3 PIP tumor; 1 h after tail vein injection): 23.08 ± 14.91 | PIP to blood (PSMA+ PC-3 PIP tumor; 2 h after tail vein injection): 36.90 ± 9.52 | PIP to liver (PSMA+ PC-3 PIP tumor; 2 h after tail vein injection): 13.71 ± 12.60 | PIP to muscle (PSMA+ PC-3 PIP tumor; 2 h after tail vein injection): 38.11 ± 14.83 | PIP to spleen (PSMA+ PC-3 PIP tumor; 2 h after tail vein injection): 25.98 ± 8.66 | PIP/flu (PSMA+ PC-3 PIP tumor; 2 h after tail vein injection): 33.32 ± 14.64 | PIP to blood (PSMA+ PC-3 PIP tumor; 4 h after tail vein injection): 42.90 ± 18.49 | PIP to liver (PSMA+ PC-3 PIP tumor; 4 h after tail vein injection): 19.77 ± 11.81 | PIP to muscle (PSMA+ PC-3 PIP tumor; 4 h after tail vein injection): 45.39 ± 22.54 | PIP to spleen (PSMA+ PC-3 PIP tumor; 4 h after tail vein injection): 32.51 ± 10.12 | PIP/flu (PSMA+ PC-3 PIP tumor; 4 h after tail vein injection): 35.69 ± 11.64 | % Internalization ratio (Mean ± SD) (PC-3 PIP; 30 min): 93.30 ± 2.11% | % Internalization ratio (Mean ± SD) (PC-3 PIP; 60 min): 91.89 ± 5.76% | % Internalization ratio (Mean ± SD) (PC-3 PIP; 120 min): 94.77 ± 2.92% | % Internalization ratio (Mean ± SD) (PC-3 PIP; 240 min): 96.32 ± 1.08% | binding capacity higher than [18F]DCFPyL (Comparative Example 1) (PSMA protein): about 6 times | binding to the PSMA protein (in words) (PSMA protein): most strongly bound | IC50 (PSMA protein): 5.08 nM | tumor binding (MicroPET/CT, FIG. 3) (PSMA+ PC-3 PIP tumors): selectively bound to PSMA+PC-3 PIP tumors | excretion (MicroPET/CT, FIG. 3) (PSMA+ PC-3 PIP tumors): rapidly excreted through the kidneys and bladder

O=C(O)CC[C@H](NC(=O)N[C@@H](CCCCNC(=O)NCc1cn(CCOCC[18F])nn1)C(=O)O)C(=O)O [Example 7-4]
IC50 (PSMA protein): 57 ± 33 nM
